The target in assay [1] is T1, full-length beta-Catenin (Uniprot ID P35222) (Homo sapiens, UniProt P35222).
T1 construct: 10 nM full-length beta-Catenin (Uniprot ID P35222)
T1 sequence (P35222 1-781): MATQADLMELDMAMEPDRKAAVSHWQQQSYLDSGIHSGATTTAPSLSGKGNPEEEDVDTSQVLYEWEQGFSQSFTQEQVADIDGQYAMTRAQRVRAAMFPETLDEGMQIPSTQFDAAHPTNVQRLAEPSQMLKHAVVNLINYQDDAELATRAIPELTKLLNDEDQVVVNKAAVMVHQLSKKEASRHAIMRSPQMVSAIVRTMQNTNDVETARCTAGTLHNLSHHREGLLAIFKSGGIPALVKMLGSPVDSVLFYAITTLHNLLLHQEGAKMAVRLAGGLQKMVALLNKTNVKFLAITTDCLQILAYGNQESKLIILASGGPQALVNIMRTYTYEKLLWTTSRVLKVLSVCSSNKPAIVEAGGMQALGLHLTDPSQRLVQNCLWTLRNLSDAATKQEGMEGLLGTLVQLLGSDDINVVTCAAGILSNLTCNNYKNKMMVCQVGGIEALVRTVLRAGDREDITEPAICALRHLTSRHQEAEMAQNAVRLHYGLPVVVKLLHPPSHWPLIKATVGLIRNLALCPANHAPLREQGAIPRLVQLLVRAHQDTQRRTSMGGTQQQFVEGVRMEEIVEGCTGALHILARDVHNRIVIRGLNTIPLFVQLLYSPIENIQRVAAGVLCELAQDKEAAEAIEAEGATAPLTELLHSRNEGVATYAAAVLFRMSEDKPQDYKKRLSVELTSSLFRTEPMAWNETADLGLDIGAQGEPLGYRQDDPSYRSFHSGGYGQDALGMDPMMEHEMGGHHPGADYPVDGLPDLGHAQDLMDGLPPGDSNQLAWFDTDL
The assay is described as follows: Fluorescence polarization IC50 (beta-catenin / 5FAM-TCF4 10-53 competition). The class given is binding. The conditions noted are these: fluorescence polarization; read-out: beta-Catenin FP IC50. For orientation: Fluorescence polarisation rises when a labelled molecule tumbles more slowly, as on binding a larger partner.

The target in assay [2] is T2, beta-catenin/TCF4 engagement (Homo sapiens, UniProt P35222).
T2 construct: expressed in transfected cells; host or cells: HEK293
T2 sequence (P35222 1-781): T1 sequence (P35222 1-781)
The assay is described as follows: Nano-BRET target engagement assay (B-cat-Halo & TCF4-Luc in HEK293 cells). The class given is cell-based. The conditions noted are these: read-out: NanoBRET Abs IC50. (In general: In BRET a luciferase serves as donor, and the signal depends on an acceptor being close.)

Here are results for eleven compounds from patent US20240116985A1, “STAPLED PEPTIDES AND METHODS THEREOF” (priority 2020, published 2024).

A word on the IC50: it is the concentration that gives 50% inhibition. Take `CC(=O)N1CCC[C@]12CC=CCCCC1(CCCC=CCCCOC(=O)N3CC[C@@](C(=O)N[C@@H](Cc4ccccc4Cl)C(=O)N[C@@H](Cc4csc5ccccc45)C(=O)N[C@@H](CC(N)=O)C(N)=O)(C3)NC(=O)[C@H](C)NC(=O)[C@H](Cc3ccccc3)NC(=O)[C@H](C)NC(=O)[C@H](C)NC(=O)[C@H](Cc3cccc(C(=O)O)c3)NC(=O)[C@H](CC(=O)O)NC1=O)NC(=O)[C@H](CC(C)(C)C)NC(=O)[C@H](CC(=O)O)NC2=O` (stereo partly drawn) [I-2035, Ac-PL3-Asp-Npg-B5-Asp-3COOHF-Ala-Ala-Phe-Ala-PyrS2-2C1F-BztA-Asn-NH2]: the IC50 is 16 nM in assay [1] and 14.5 µM in assay [2].
In the same order, the values of `CC(=O)N1CCC[C@]12CC=CCCCC1(CCCC=CCCCOC(=O)N3CC[C@@](C(=O)N[C@@H](Cc4ccccc4Cl)C(=O)N[C@@H](Cc4csc5ccccc45)C(=O)N[C@@H](CC(N)=O)C(N)=O)(C3)NC(=O)[C@H](C)NC(=O)[C@H](Cc3ccccc3)NC(=O)[C@H](C)NC(=O)[C@H](C)NC(=O)[C@H](Cc3cccc(C(=O)O)c3)NC(=O)[C@H](CC(=O)O)NC1=O)NC(=O)[C@H](CC(C)(C)C)NC(=O)[C@H](CC(=O)O)NC2=O` (stereo partly drawn) [I-2036, Ac-PL3-Asp-Npg-B5-Asp-3COOHF-Ala-Ala-Phe-Ala-PyrS2-2C1F-BztA-Asn-NH2] are 19 nM and 12.9 µM.
Consider `CC(=O)N1CCC[C@]12CC=CCCCC1(CCCC=CCCCOC(=O)N3CC[C@@](C(=O)N[C@@H](Cc4ccccc4Cl)C(=O)N[C@@H](Cc4csc5ccccc45)C(=O)N[C@@H](CC(N)=O)C(N)=O)(C3)NC(=O)[C@H](Cc3ccccc3)NC(=O)[C@H](Cc3ccccc3)NC(=O)[C@H](C)NC(=O)[C@H](C)NC(=O)[C@H](Cc3cccc(C(=O)O)c3)NC(=O)[C@H](CC(=O)O)NC1=O)NC(=O)[C@H](CC(C)(C)C)NC(=O)[C@H](CC(=O)O)NC2=O` (stereo partly drawn) [I-2037, Ac-PL3-Asp-Npg-B5-Asp-3COOHF-Ala-Ala-Phe-Phe-PyrS2-2C1F-BztA-Asn-NH2], for which the IC50 in assay [1] turned out to be 17 nM; in assay [2], 5 µM.
`CC(=O)N1CCC[C@]12CC=CCCCC1(CCCC=CCCCOC(=O)N3CC[C@@](C(=O)N[C@@H](Cc4ccccc4Cl)C(=O)N[C@@H](Cc4csc5ccccc45)C(=O)N[C@@H](CC(N)=O)C(N)=O)(C3)NC(=O)[C@H](CO)NC(=O)[C@H](Cc3ccccc3)NC(=O)[C@H](C)NC(=O)[C@H](C)NC(=O)[C@H](Cc3cccc(C(=O)O)c3)NC(=O)[C@H](CC(=O)O)NC1=O)NC(=O)[C@H](CC(C)(C)C)NC(=O)[C@H](CC(=O)O)NC2=O` (stereo partly drawn) [I-2038, Ac-PL3-Asp-Npg-B5-Asp-3COOHF-Ala-Ala-Phe-Ser-PyrS2-2C1F-BztA-Asn-NH2]: the IC50 is 11 nM in assay [1] and 11.8 µM in assay [2].
In the same order, the values of `CC(=O)N1CCC[C@]12CC=CCCCC1(CCCC=CCCCOC(=O)N3CC[C@@](C(=O)N[C@@H](Cc4ccccc4Cl)C(=O)N[C@@H](Cc4csc5ccccc45)C(=O)N[C@@H](CC(N)=O)C(N)=O)(C3)NC(=O)[C@H](CO)NC(=O)[C@H](Cc3ccccc3)NC(=O)[C@H](C)NC(=O)[C@H](C)NC(=O)[C@H](Cc3cccc(C(=O)O)c3)NC(=O)[C@H](CC(=O)O)NC1=O)NC(=O)[C@H](CC(C)(C)C)NC(=O)[C@H](CC(=O)O)NC2=O` (stereo partly drawn) [I-2039, Ac-PL3-Asp-Npg-B5-Asp-3COOHF-Ala-Ala-Phe-Ser-PyrS2-2C1F-BztA-Asn-NH2] are 9 nM and 10.5 µM.
With `CC(=O)N1CCC[C@]12CC=CCCCC1(CCCC=CCCCOC(=O)N3CC[C@@](C(=O)N[C@@H](Cc4ccsc4)C(=O)N[C@@H](Cc4csc5ccccc45)C(=O)N[C@@H](CC(N)=O)C(N)=O)(C3)NC(=O)[C@H](C)NC(=O)[C@H](Cc3ccccc3)NC(=O)[C@H](C)NC(=O)[C@H](C)NC(=O)[C@H](Cc3cccc(C(=O)O)c3)NC(=O)[C@H](CC(=O)O)NC1=O)NC(=O)[C@H](CC(C)(C)C)NC(=O)[C@H](CC(=O)O)NC2=O` (stereo partly drawn) [I-2042, Ac-PL3-Asp-Npg-B5-Asp-3COOHF-Ala-Ala-Phe-Ala-PyrS2-3Thi-BztA-Asn-NH2], the IC50 in assay [1] was 9 nM; in assay [2], 10 µM.
As for `CC(=O)N1CCC[C@]12CC=CCCCC1(CCCC=CCCCOC(=O)N3CC[C@@](C(=O)N[C@@H](Cc4ccsc4)C(=O)N[C@@H](Cc4csc5ccccc45)C(=O)N[C@@H](CC(N)=O)C(N)=O)(C3)NC(=O)[C@H](CO)NC(=O)[C@H](Cc3ccccc3)NC(=O)[C@H](C)NC(=O)[C@H](C)NC(=O)[C@H](Cc3cccc(C(=O)O)c3)NC(=O)[C@H](CC(=O)O)NC1=O)NC(=O)[C@H](CC(C)(C)C)NC(=O)[C@H](CC(=O)O)NC2=O` (stereo partly drawn) [I-2045, Ac-PL3-Asp-Npg-B5-Asp-3COOHF-Ala-Ala-Phe-Ser-PyrS2-3Thi-BztA-Asn-NH2], the IC50 is 5 nM in assay [1] and 13.5 µM in assay [2].
For `CC(=O)N1CCC[C@]12CC=CCCCC1(CCCC=CCCCOC(=O)N3CC[C@@](C(=O)N[C@@H](Cc4ccsc4)C(=O)N[C@@H](Cc4csc5ccccc45)C(=O)N[C@@H](CC(N)=O)C(=O)N[C@@H](C)C(=O)N[C@@H](C)C(=O)N[C@@H](C)C(N)=O)(C3)NC(=O)[C@H](CC(C)C)NC(=O)[C@H](Cc3ccccc3)NC(=O)[C@H](C)NC(=O)[C@H](C)NC(=O)[C@H](Cc3cccc(C(=O)O)c3)NC(=O)[C@H](CC(=O)O)NC1=O)NC(=O)[C@H](CC(C)(C)C)NC(=O)[C@H](CC(=O)O)NC2=O` (stereo partly drawn) [I-2046, Ac-PL3-Asp-Npg-B5-Asp-3COOHF-Ala-Ala-Phe-Leu-PyrS2-3Thi-BztA-Asn-Ala-Ala-Ala-NH2], the IC50 in assay [1] is 12 nM; in assay [2], 2.9 µM.
Turning to `CC(=O)N1CCC[C@]12CC=CCCCC1(CCCC=CCCCOC(=O)N3CC[C@@](C(=O)N[C@@H](Cc4ccsc4)C(=O)N[C@@H](Cc4csc5ccccc45)C(=O)N[C@@H](C)C(N)=O)(C3)NC(=O)[C@H](CC(C)C)NC(=O)[C@H](Cc3ccccc3)NC(=O)[C@H](C)NC(=O)[C@H](CC(N)=O)NC(=O)[C@H](Cc3cccc(C(=O)O)c3)NC(=O)[C@H](CC(=O)O)NC1=O)NC(=O)[C@H](CC(C)(C)C)NC(=O)[C@H](CC(=O)O)NC2=O` (stereo partly drawn) [I-2049, Ac-PL3-Asp-Npg-B5-Asp-3COOHF-Asn-Ala-Phe-Leu-PyrS2-3Thi-BztA-Ala-NH2], the IC50 in assay [1] is 5 nM; in assay [2], 4.5 µM.
`CC(=O)N1CCC[C@]12CC=CCCCC1(CCCC=CCCCOC(=O)N3CC[C@@](C(=O)N[C@@H](Cc4ccsc4)C(=O)N[C@@H](Cc4csc5ccccc45)C(=O)N[C@@H](C)C(N)=O)(C3)NC(=O)[C@H](CC(C)C)NC(=O)[C@H](Cc3ccccc3)NC(=O)[C@H](C)NC(=O)[C@H](CO)NC(=O)[C@H](Cc3cccc(C(=O)O)c3)NC(=O)[C@H](CC(=O)O)NC1=O)NC(=O)[C@H](CC(C)(C)C)NC(=O)[C@H](CC(=O)O)NC2=O` (stereo partly drawn) [I-2050, Ac-PL3-Asp-Npg-B5-Asp-3COOHF-Ser-Ala-Phe-Leu-PyrS2-3Thi-BztA-Ala-NH2]: the IC50 in assay [1] came out at 9 nM; in assay [2] it was 4.9 µM.
With `CC(=O)N1CCC[C@]12CC=CCCCC1(CCCC=CCCCOC(=O)N3CC[C@@](C(=O)N[C@@H](Cc4ccsc4)C(=O)N[C@@H](Cc4csc5ccccc45)C(=O)N[C@@H](C)C(N)=O)(C3)NC(=O)[C@H](CC(C)C)NC(=O)[C@H](Cc3ccccc3)NC(=O)[C@H](C)NC(=O)[C@H]([C@@H](C)O)NC(=O)[C@H](Cc3cccc(C(=O)O)c3)NC(=O)[C@H](CC(=O)O)NC1=O)NC(=O)[C@H](CC(C)(C)C)NC(=O)[C@H](CC(=O)O)NC2=O` (stereo partly drawn) [I-2051, Ac-PL3-Asp-Npg-B5-Asp-3COOHF-Thr-Ala-Phe-Leu-PyrS2-3Thi-BztA-Ala-NH2], the figures for the IC50 in assay [1] and in assay [2] were 16 nM and 8.3 µM, respectively.
